Data as given in US8759304B2, “Compositions and methods for increasing telomerase activity” (Telomerase Activation Science, Inc., priority 2003, dated 2014).

Legend:
[1] = test system: telomerase activity in HEKneoP cells (neonatal keratinocytes); experiment: TRAP assay of telomerase activity in HEKneoP cells (neonatal keratinocytes); format: cell-based, human; details: for MEC (minimum effective concentration producing telomerase activity twice that of DMSO control): 100% greater than DMSO control
[2] = test system: young neonatal keratinocytes; experiment: Scratch assay (wound healing activity), young neonatal keratinocytes; format: cell-based; details: FIG. 5, 1 at 0.1 μg/ml, 2 at 0.01 μM; for WHtest (wound healing activity): WH=100−[100×Wn/W0], WHcntrl 52.6
Description: (§1) The compounds of formula I-III can be used to promote healing of wounds, burns, abrasions or other acute or chronic conditions of the epidermis, as discussed further below. As used herein, “wound healing activity as measured in a scratch assay” refers to the activity as measured in keratinocytes or fibroblasts according to the following protocol, and expressed as the value of WH shown in the formula below.
(§2) Cells are plated in flasks (5×10^5 cells per flask) and cultured for two days in a humidified chamber at 5% CO2, 37° C. To create the “wound”, a 2 ml plastic pipette is gently dragged to “scratch” the cell surface. The ideal wound is approximately 2-3 mm wide and 50 mm long (along the long axis of the tissue culture flask). The cells are retreated with medium containing either vehicle (DMSO; control sample) or test compositions at multiple concentrations. A wound area is identified, the flask marked, and the appearance of the cells documented photographically over 3-4 days continued culturing of the cells.
(§3) Amount of wound closure is determined by measuring the width of the wound over time for compound-treated samples relative to vehicle-treated or other control cells. Measurements are made from the photographs taken for each of the samples on days 1 (immediately after scratching), 2, 3, and 4. Percentage of wound healing (also expressed as “wound healing activity”) is calculated by the following formula: WH=100−[100×Wn/W0], where Wn is the width of the wound on day n and W0 is the width of the wound on day one (i.e. immediately after scratching).
(§4) Wound healing activity of invention compounds 1 (astragaloside IV) and 2 (cycloastragenol) was evaluated in aging keratinocytes, via a scratch assay as described above.

[3] = test system: aging neonatal keratinocytes; experiment: Scratch assay (wound closure), aging neonatal keratinocytes; format: cell-based; details: FIG. 7; compared with 50 ng/mL PDGF
Description: as §1
Cells are plated in flasks (5×10^5 cells per flask) and cultured for two days in a humidified chamber at 5% CO2, 37° C. To create the “wound”, a 2 ml plastic pipette is gently dragged to “scratch” the cell surface. The ideal wound is approximately 2-3 mm wide and 50 mm long (along the long axis of the tissue culture flask). The cells are retreated with medium containing either vehicle (DMSO; control sample) or test compositions at multiple concentrations. […]
Amount of wound closure is determined by measuring the width of the wound over time for compound-treated samples relative to vehicle-treated or other control cells. […] Percentage of wound healing (also expressed as “wound healing activity”) is calculated by the following formula: WH=100−[100×Wn/W0], where Wn is the width of the wound on day n and W0 is the width of the wound on day one (i.e. immediately after scratching). […]

[4] = test system: aging adult keratinocytes; experiment: Scratch assay (wound healing activity), aging adult keratinocytes; format: cell-based; details: FIG. 4; for Approx. wound width Day1 test: 0.1 μg/ml (about 0.13 μM) 1
Description: as §1, §2, §3, §4
(GRN163 is a telomerase inhibitor oligonucleotide that targets the template region of the telomerase RNA component. Specifically, GRN 163 is a 13-mer N3′→P5′ thiophosphoramidate oligonucleotide, described in detail in PCT Pubn. No. WO 01/18015. GRN137227 is a 13-mer N3′→P5′ thiophosphoramidate control oligonucleotide having a mismatched sequence.)

[5] = test system: Sprague-Dawley rats; experiment: Systemic tolerance after single intravenous injection in rats; format: in vivo; details: single intravenous injections up to 10 mg/kg
Description: (§5) Studies in support of the invention indicate that the compounds of formula I-III have excellent bioavailability and low toxicity. For example, a representative compound, cycloastragenol (2), was negative for reverse bacterial mutation potential in the Ames test, employing Salmonella Typhimurium tester strains TA98, TA100, TA1535, TA 1537 and E. coli tester strain WP2 uvrA, at levels up to 5000 μg/plate. It was well-tolerated systemically in Sprague-Dawley rats, after single intravenous injections up to 10 mg/kg.

[6] = test system: Salmonella Typhimurium tester strains TA98, TA100, TA1535, TA 1537 and E. coli tester strain WP2 uvrA; experiment: Ames test (reverse bacterial mutation); details: levels up to 5000 μg/plate
Description: as §5

[7] = day 1 immediately after scratching

CC(C)(O)[C@@H]1CC[C@](C)([C@H]2[C@@H](O)C[C@@]3(C)[C@@H]4C[C@H](OC5O[C@H](CO)[C@@H](O)[C@H](O)[C@H]5O)[C@H]5C(C)(C)C(O)CCC56C[C@@]46CC[C@]23C)O1 (stereo partly drawn) [Compound 6, cycloastragenol 6-β-D-glucopyranoside]
MEC (minimum effective concentration producing telomerase activity twice that of DMSO control) [1]: 3.2 µM

CC(C)(O)[C@@H]1CC[C@](C)([C@H]2[C@@H](O)C[C@@]3(C)[C@@H]4C[C@H](O[C@@H]5O[C@H](CO)[C@@H](O)[C@H](O)[C@H]5O)[C@H]5C(C)(C)[C@@H](O[C@@H]6OC[C@@H](O)[C@H](O)[C@H]6O)CC[C@@]56C[C@@]46CC[C@]23C)O1 [Compound 1, astragaloside IV]
MEC (minimum effective concentration producing telomerase activity twice that of DMSO control) [1]: 0.01 µM | telomerase activity ([1]; at 1.0 μM in DMSO, maximum, decreased at higher concentration up to 10 μM): about 360 % of control | Approx. wound width Day1 test [2]: 0 arbitrary units | WHtest (wound healing activity) [2]: 100 | Approx. wound width Day1 test [2, 7]: 18 arbitrary units | wound closure as percent of control, effectiveness [3]: comparable to that of PDGF | WHtest (wound healing activity) ([4]; 0.1 μg/ml 1, WH=100−[100×Wn/W0], WHcntrl 54.5): 100 | Approx. wound width Day1 test [4]: 0 arbitrary units | Approx. wound width Day1 test [4, 7]: 17 arbitrary units | state of scratch wound in treated cells ([4]; 0.1 μg/ml (about 0.13 μM) 1 in DMSO, control still had sizable wound at day 4): confluent at day 4

EGF: epidermal growth factor
telomerase activity ([1]; cells treated with 10 nM EGF): about 200%

astragaloside IV 16-one [Compound 4]
MEC (minimum effective concentration producing telomerase activity twice that of DMSO control) [1]: 0.03 µM

CC(C)=CCC[C@](C)(O)[C@H]1CC[C@]2(C)[C@@H]1[C@H](O)C[C@@H]1[C@@]3(C)CC[C@H](O)C(C)(C)[C@@H]3[C@@H](O[C@@H]3O[C@H](CO)[C@@H](O)[C@H](O)[C@H]3O)C[C@]12C [Compound 8, ginsenoside RH1]
MEC (minimum effective concentration producing telomerase activity twice that of DMSO control) [1]: 10 µM

CC(C)(O)[C@@H]1CC[C@](C)([C@H]2[C@@H](O)C[C@@]3(C)[C@@H]4C[C@H](O)[C@H]5C(C)(C)C(O[C@@H]6OC[C@@H](O)[C@H](O)[C@H]6O)CCC56C[C@@]46CC[C@]23C)O1 (stereo partly drawn) [Compound 7, cycloastragenol 3-β-D-xylopyranoside]
MEC (minimum effective concentration producing telomerase activity twice that of DMSO control) [1]: 3.2 µM

CC1(C)C2=CC[C@@H]3[C@@](C)(CC[C@]4(C)[C@@H]([C@@]5(C)CC[C@@H](C(C)(C)O)O5)[C@@H](O)C[C@@]34C)C2=CCC1O (stereo partly drawn) [Compound 5, 20R,24S-epoxy-3β,16β,25-trihydroxy-9β-methyl-19-norlanost-1,5-diene]
MEC (minimum effective concentration producing telomerase activity twice that of DMSO control) [1]: 0.10 µM

CC(C)(O)[C@@H]1CC[C@](C)([C@H]2[C@@H](O)C[C@@]3(C)[C@@H]4C[C@H](O)[C@H]5C(C)(C)[C@@H](O)CC[C@@]56C[C@@]46CC[C@]23C)O1 [Compound 2, cycloastragenol]
MEC (minimum effective concentration producing telomerase activity twice that of DMSO control) [1]: 0.01 µM | telomerase activity ([1]; at 0.1 μM in DMSO, maximum, decreased with further increases in concentration): about 300 % of control | changes in behavior (eating, drinking), gross weight, organ weights, hematology or clinical chemistry ([5]; males or females): No significant dose-dependent changes | systemic tolerance [5]: well-tolerated | reverse bacterial mutation potential [6]: negative | Approx. wound width Day1 test [2]: 2 arbitrary units | WHtest (wound healing activity) [2]: 90.5 | Approx. wound width Day1 test [2, 7]: 21 arbitrary units

CC(C)(O)[C@@H]1CC[C@](C)([C@H]2[C@@H](O)C[C@@]3(C)[C@@H]4C[C@H](O)[C@H]5C(C)(C)[C@@H](O)CC[C@]5(C)C4=CC[C@]23C)O1 [Compound 3, astragenol]
MEC (minimum effective concentration producing telomerase activity twice that of DMSO control) [1]: 0.03 µM
